Laboratory results: patent US12103983B2, “Compound and angiogenic agent comprising same” (HiPep Laboratories, priority 2018, dated 2024)
Bridge positions count the residues as written; N and C are the ends. Square brackets hold non-standard residues; d marks the D form. Peptide text beside a SMILES is read from it. AEEA = NCCOCCOCC(=O)O

The compounds below were run on endogenous cellular enzyme (assay: Stability test against endogenous cellular enzyme (HUVEC cell lysate)). Details: 37° C., after 6 hours of the assay.
Type: in vitro ADME, human
Experimental: In order to test retention of the effect, and usefulness as a drug, each peptide was subjected to a stability test against endogenous cellular enzyme.
Human vascular endothelial cells (HUVECs (Human Umbilical Vein Endothelial Cells, Promocell GmbH.)) were used. Cryopreserved HUVECs were cultured for 2 days in Endothelial Cell Growth Medium (Promocell GmbH.). The cells were detached and collected by a conventional method using trypsin-EDTA, and washed with H2O, followed by addition of Lysis Buffer for Enzyme extraction (5 mL of TBS pH 7.5, 5 mL of Triton X100 (trade name), 40 mL of H2O with cOmplete mini, manufactured by Roche) thereto. The resulting mixture was left to stand on ice for 30 minutes to lyse the cells. The resulting cell lysate was centrifuged at 13,000 rpm at 4° C. for 3 min, and the supernatant was collected. The protein concentration was measured at A280 (Nano drop, Thermofischer scientific), and then adjusted to 2 mg/mL to prepare a protein solution for an assay.
In each of PCR tubes, 50 μL of each of four kinds of AGP solutions (2 mg/mL)+20 μL of the cell lysate (2 mg/mL)+30 μL of H2O were mixed together, and the resulting mixtures were incubated at 37° C. in an incubator for 0, 1, 3, or 6 hours. Thereafter, each mixture was heated in a hot water bath at 90° C. for 5 minutes to inactivate enzyme, and then subjected to LC-MS analysis. The remaining peptide was quantified based on the area value of the peak detected with UV 210 nm in LC.

| remaining peptide / degradation (in words) | SMILES |
| --- | --- |
| same level of stability | CC(C)CC(NC(=O)CNC(=O)C(Cc1ccccc1)NC(=O)C(NC(=O)C(NC(=O)C(CO)NC(=O)COCCOCCN)C(C)C)C(C)C)C(=O)NC(CCCNC(=N)N)C(N)=O (stereo not drawn) [AGP-O2Oc, O2Oc-SVVFGLR-NH2] (H-[AEEA]SVVFGLR-NH2; configuration not given here) |
| remained almost without degradation | CC(C)CC1NC(=O)CNC(=O)C(Cc2ccccc2)NC(=O)C(C(C)C)NC(=O)C(C(C)C)NC(=O)C(CO)NC(=O)COCCOCCNC(=O)C(N)CSSCC(C(N)=O)NC(=O)CNC(=O)C(CCCNC(=N)N)NC1=O (stereo not drawn) [cAGP3, Cyclic(Cys-O2Oc-SVVFGLR-G-Cys)-NH2] (H-C[AEEA]SVVFGLRGC-NH2; disulfide 1-11; configuration not given here) |
| remained almost without degradation | CC(C)CC1NC(=O)CNC(=O)C(Cc2ccccc2)NC(=O)C(C(C)C)NC(=O)C(C(C)C)NC(=O)C(CO)NC(=O)COCCOCCNC(=O)C(N)CSSCC(C(N)=O)NC(=O)CNC(=O)C(CCCNC(=N)N)NC1=O (stereo not drawn) [cAGP2, Cyclic(DCys-O2Oc-SVVFGLR-G-DCys)-NH2] (H-C[AEEA]SVVFGLRGC-NH2; disulfide 1-11; configuration not given here) |
